Data from publication PMC4668384 (Scientific Reports, 2015).
Converted amounts (≈) assume the structure as drawn. Like-named read-outs stand apart in the source and are kept apart here.

Key:
[1] = tested on: V. virens isolate FJ4-1b (wild type); test: Tebuconazole sensitivity, mycelial growth on amended PSA, wild type isolate; format: cell-based, Villosiclava virens; details: Ustilaginoidea virens, 336 h, 28 °C, 14 days
Description: Mycelial plugs (6 mm) were transferred in triplicates from the margins of 14-day old colonies to 9 cm petri dishes containing nonamended or tebuconazole-amended PSA. Dishes were incubated at 28 °C for 14 days in darkness. The average colony diameter was measured in two perpendicular directions, and the EC50 value was determined by regressing percentage growth inhibition against the log of fungicide concentration.

[2] = tested on: VvCYP51 gene expression in isolate FJ4-1b; test: Induction of VvCYP51 gene expression by tebuconazole (real-time PCR); details: 0.1 μg/ml tebuconazole for 6 h, versus untreated control
Description: The wild type isolates, mutant, and transformants were grown in 50 ml of PSB at 28 °C for 7 days on a 160 rpm orbital shaker. Total RNA was extracted from mycelia using the TRIzole reagent (Aidlab, Beijing, China), then digested with DNase I nuclease (Takara, Dalian, China) to remove DNA contamination. The cDNA was synthesized using a RevertAid First Strand cDNA Synthesis Kit employing the oligo(dT)18 primer (Thermo Fisher Scientific, Waltham, MA). The expression of the VvCYP51 gene was evaluated by real-time PCR using the primer pair RealCYP51-F/RealCYP51-R. Expression was normalized with the α-tubulin gene. Relative expression was calculated using the comparative Ct (2^−ΔΔCt) method[51]. […] Real-time PCR amplifications of VvCYP51 were performed in a CFX96 Real-Time PCR Detection System (Bio-Rad Laboratories Inc., Hercules, CA) using SYBR Green I fluorescent dye. Amplifications were conducted in a 20-μl volume containing 10 μl of SYBR qPCR Mix (Aidlab, Beijing, China), 1 μl of RT product and 0.2 μM of each primer. All samples were in triplicates with the following profile: an initial preheat at 95 °C for 2 min, followed by 40 cycles at 95 °C for 20 s, 60 °C for 20 s and 72 °C for 20 s. The entire experiment starting with RNA extractions was repeated four times.

[3] = target: T1, truncated wild type VvCYP51 (Ustilaginoidea virens (Villosiclava virens), UniProt X2GGV8); test: UV-visible spectral binding assay, truncated wild type protein
T1 sequence (X2GGV8 29-528): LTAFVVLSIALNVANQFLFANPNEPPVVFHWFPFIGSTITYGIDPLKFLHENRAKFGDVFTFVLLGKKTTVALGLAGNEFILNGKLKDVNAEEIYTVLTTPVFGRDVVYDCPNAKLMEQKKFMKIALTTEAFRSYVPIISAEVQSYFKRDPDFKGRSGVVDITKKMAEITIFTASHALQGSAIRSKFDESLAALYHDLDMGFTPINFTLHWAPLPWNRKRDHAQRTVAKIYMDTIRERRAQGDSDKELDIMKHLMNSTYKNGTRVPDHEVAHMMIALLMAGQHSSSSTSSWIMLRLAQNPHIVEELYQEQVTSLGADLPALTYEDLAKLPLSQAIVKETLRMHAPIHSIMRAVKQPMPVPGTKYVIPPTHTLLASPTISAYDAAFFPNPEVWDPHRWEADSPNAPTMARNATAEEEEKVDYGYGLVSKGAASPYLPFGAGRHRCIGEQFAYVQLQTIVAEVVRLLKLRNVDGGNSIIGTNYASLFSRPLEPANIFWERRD

[4] = tested on: V. virens pB-Vv51wt transformants (P-F); test: Tebuconazole sensitivity, mycelial growth on amended PSA, pB-Vv51wt transformants; format: cell-based, Villosiclava virens; details: Ustilaginoidea virens

In the case of CC(C)(C)C(O)(CCc1ccc(Cl)cc1)Cn1cncn1 (stereo not drawn) [tebuconazole], the EC50 [1] is reported as 0.04 µg/mL (≈ 0.13 µM), the “increase of expression of VvCYP51 gene” value [2] is reported as 29.94 fold and the Kd ([3]; bound for the three different truncated wild type VvCYP51 proteins, read-out: Kd values) is reported as < 40 nM. For the same molecule, the Kd ([3]; wild type VvCYP51, −28aa N-terminal truncation, read-out: Kd) was 37 ± 2.7 nM, the Kd ([3]; wild type VvCYP51, −42aa N-terminal truncation, read-out: Kd) was 34 ± 2.3 nM and the Kd ([3]; wild type VvCYP51, −74aa N-terminal truncation, read-out: Kd) was 37 ± 2.5 nM. The EC50 ([4]; 336 h, read-out: EC50 value, transformant P-F 4, mycelial growth on PSA, 28 °C, 14 days) was 0.11 µg/mL (≈ 0.357 µM), the EC50 ([4]; 336 h, read-out: EC50 value, transformant P-F 7, mycelial growth on PSA, 28 °C, 14 days) was 0.24 µg/mL (≈ 0.78 µM) and the EC50 ([4]; 336 h, read-out: EC50 value, transformant P-F 8, mycelial growth on PSA, 28 °C, 14 days) was 0.13 µg/mL (≈ 0.422 µM). It also gave an EC50 ([4]; 336 h, read-out: EC50 value, transformant P-F 9, mycelial growth on PSA, 28 °C, 14 days) of 0.15 µg/mL (≈ 0.487 µM), an EC50 ([4]; 336 h, read-out: EC50 value, transformant P-F 10, mycelial growth on PSA, 28 °C, 14 days) of 0.12 µg/mL (≈ 0.39 µM) and an EC50 ([4]; 336 h, read-out: EC50 value, transformant P-F 13, mycelial growth on PSA, 28 °C, 14 days) of 0.11 µg/mL (≈ 0.357 µM). It also gave an EC50 ([4]; 336 h, read-out: EC50 value, transformant P-F 14, mycelial growth on PSA, 28 °C, 14 days) of 0.28 µg/mL (≈ 0.91 µM), an EC50 ([4]; 336 h, read-out: EC50 value, transformant P-F 15, mycelial growth on PSA, 28 °C, 14 days) of 0.13 µg/mL (≈ 0.422 µM) and an EC50 ([4]; 336 h, read-out: EC50 value, transformant P-F 16, mycelial growth on PSA, 28 °C, 14 days) of 0.13 µg/mL (≈ 0.422 µM). For the same molecule, the EC50 ([4]; 336 h, read-out: EC50 value, transformant P-F 17, mycelial growth on PSA, 28 °C, 14 days) was 0.2 µg/mL (≈ 0.65 µM), the EC50 ([4]; 336 h, read-out: EC50 value, transformant P-F 20, mycelial growth on PSA, 28 °C, 14 days) was 0.27 µg/mL (≈ 0.877 µM) and the EC50 ([4]; 336 h, read-out: EC50 value, transformant P-F 22, mycelial growth on PSA, 28 °C, 14 days) was 0.15 µg/mL (≈ 0.487 µM). The EC50 ([4]; 336 h, read-out: EC50 value, transformant P-F 23, mycelial growth on PSA, 28 °C, 14 days) was 0.2 µg/mL (≈ 0.65 µM), the EC50 ([4]; 336 h, read-out: EC50 value, transformant P-F 25, mycelial growth on PSA, 28 °C, 14 days) was 0.15 µg/mL (≈ 0.487 µM) and the EC50 ([4]; 336 h, read-out: EC50 value, transformant P-F 26, mycelial growth on PSA, 28 °C, 14 days) was 0.18 µg/mL (≈ 0.585 µM). It also gave an EC50 ([4]; 336 h, read-out: EC50 value, transformant P-F 28, mycelial growth on PSA, 28 °C, 14 days) of 0.13 µg/mL (≈ 0.422 µM), an EC50 ([4]; 336 h, read-out: EC50 value, transformant P-F 29, mycelial growth on PSA, 28 °C, 14 days) of 0.26 µg/mL (≈ 0.845 µM) and an EC50 ([4]; 336 h, read-out: EC50 value, transformant P-F 31, mycelial growth on PSA, 28 °C, 14 days) of 0.25 µg/mL (≈ 0.812 µM). For the same molecule, the EC50 ([4]; 336 h, read-out: EC50 value, transformant P-F 32, mycelial growth on PSA, 28 °C, 14 days) was 0.32 µg/mL (≈ 1.04 µM), the EC50 ([4]; 336 h, read-out: EC50 value, transformant P-F 33, mycelial growth on PSA, 28 °C, 14 days) was 0.12 µg/mL (≈ 0.39 µM) and the EC50 ([4]; 336 h, read-out: EC50 value, transformant P-F 34, mycelial growth on PSA, 28 °C, 14 days) was 0.15 µg/mL (≈ 0.487 µM). The EC50 ([4]; 336 h, read-out: EC50 value, transformant P-F 36, mycelial growth on PSA, 28 °C, 14 days) was 0.22 µg/mL (≈ 0.715 µM), the EC50 ([4]; 336 h, read-out: EC50 value, transformant P-F 37, mycelial growth on PSA, 28 °C, 14 days) was 0.11 µg/mL (≈ 0.357 µM) and the EC50 ([4]; 336 h, read-out: EC50 value, transformant P-F 38, mycelial growth on PSA, 28 °C, 14 days) was 0.31 µg/mL (≈ 1.01 µM). It also gave an EC50 ([4]; 336 h, read-out: EC50 value, transformant P-F 39, mycelial growth on PSA, 28 °C, 14 days) of 0.13 µg/mL (≈ 0.422 µM), an EC50 ([4]; 336 h, read-out: EC50 value, transformant P-F 40, mycelial growth on PSA, 28 °C, 14 days) of 0.21 µg/mL (≈ 0.682 µM) and an EC50 ([4]; read-out: EC50 values (range), range over the 26 pB-Vv51wt transformants) of 0.11 to 0.32 µg/mL (≈ 0.357 to 1.04 µM).
